Measured values reported in patent US7868135B2, “Compositions of lipopeptide antibiotic derivatives and methods of use thereof” (priority 2003, dated 2011).

Key:
[1] = system: Staphylococcus aureus (MSSA); conditions: 24 h
In short: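 Broth microdilution MIC per NCCLS M7-A6 with doubling serial dilutions, in cation-adjusted Mueller-Hinton broth supplemented with 0.625 mM calcium.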

[2] = system: Enterococcus faecium EFM0101 (VRE, MDR); assay: Broad spectrum MIC, Table 17/18 column A; type: cell-based; conditions: condition A of Table 17, in µg/mL
Procedure: (§1) The antimicrobial lipopeptide derivatives described herein were tested for antimicrobial activity against Gram-positive bacteria as follows. The minimum inhibitory concentrations (MIC) of the antimicrobial lipopeptide derivatives of the invention were determined using NCCLS guidelines M7-A6 (2003) with a slight modification in that doubling serial dilutions were used to dilute the test compounds. The broth phase microdilution method was used. Isolated colonies of Staphylococcus aureus (MSSA) from an 18-24 hour blood agar plate cultures were used to inoculate cation adjusted Mueller-Hinton broth (CAMHB) supplemented with 0.625 mM calcium. […] A negative control containing media alone and a positive growth control containing bacteria with media alone were also included. MICs were determined after incubating the plates at about 37° C. for 24 hours. […] In Tables 1 to 16, R is the core cyclic peptide of amphomycin or aspartocin, which can be in the form of a β-isomer, an anhydro, a dianhydro, or any combination thereof. […] Furthermore, a person of skill in the art will appreciate that all the pounds, or groups of compounds, derived from the various combinations of and substituents shown in Tables 1 to 16, are disclosed by the present the same extent as if each compound or group of compounds was set forth individually.
(§2) Antimicrobial lipopeptide derivatives of the instant invention were tested for antimicrobial activity against Gram-positive bacteria in a variety of media conditions. The […] (MIC) of the antimicrobial lipopeptide derivatives were determined as described in Example 376. The various media used are described in Table 17.

[3] = system: Enterococcus faecalis EFS0004 (VSE); assay: Broad spectrum MIC, Table 17/18 B, C, D (CAMHB; + 0.625 mM calcium; + calcium and 30% bovine serum); type: cell-based; conditions: in µg/mL; for MIC, media condition B: condition B: CAMHB; for MIC, media condition C: condition C: + 0.625 mM calcium; for MIC, media condition D: condition D: + calcium and 30% bovine serum
Procedure: as §1, §2

[4] = system: Staphylococcus aureus SAU0017 (MSSA); assay: Broad spectrum MIC, Table 17/18 columns E, F (+ 0.625 mM calcium; + calcium and 30% bovine serum); type: cell-based; conditions: in µg/mL; for MIC, media condition E: condition E: + 0.625 mM calcium; for MIC, media condition F: condition F: + calcium and 30% bovine serum
Procedure: as §1, §2

[5] = system: Staphylococcus aureus SAU0031 (VISA); assay: Broad spectrum MIC, Table 17/18 column G; type: cell-based; conditions: condition G of Table 17, in µg/mL
Procedure: as §1, §2

[6] = system: Staphylococcus aureus SAU0065 (MRSA); assay: Broad spectrum MIC, Table 17/18 column H; type: cell-based; conditions: condition H of Table 17, in µg/mL
Procedure: as §1, §2

[7] = system: Staphylococcus epidermidis SEP0375 (MRSE); assay: Broad spectrum MIC, Table 17/18 column I; type: cell-based; conditions: condition I of Table 17, in µg/mL
Procedure: as §1, §2

[8] = system: Streptococcus pneumoniae SPN0002 (PISP); assay: Broad spectrum MIC, Table 17/18 column J; type: cell-based; conditions: condition J of Table 17, in µg/mL
Procedure: as §1, §2

[9] = system: Streptococcus pneumoniae SPN0023 (PRSP); assay: Broad spectrum MIC, Table 17/18 column K; type: cell-based; conditions: condition K of Table 17, in µg/mL
Procedure: as §1, §2

[10] = system: Streptococcus pneumoniae SPN0032 (PSSP); assay: Broad spectrum MIC, Table 17/18 column L; type: cell-based; conditions: condition L of Table 17, in µg/mL
Procedure: as §1, §2

[11] = system: Streptococcus pyogenes SPY0001 (PenS); assay: Broad spectrum MIC, Table 17/18 column M; type: cell-based; conditions: condition M of Table 17, in µg/mL
Procedure: as §1, §2

[12] = In vivo half-life after single i.v. administration, mice; conditions: female, Swiss CD1, mouse, plasma, iv, 10 mg/kg
Procedure: Yet other exemplary in vivo models can be used to characterize the pharmacokinetics and pharmacodynamic parameters of antimicrobial compounds of this disclosure. Some parameters that can be measured include an in vivo half-life of a compound, elimination rate and clearance, volume of distribution, and bioavailability. For example, briefly, compounds can be administered as a single i.v. or oral (p.o.) dose in mice or rats. At various time points (ranging from 1 minute to 72 hours), blood from treated animals is collected and the concentration of lipopeptide derivative in the ex vivo plasma can be quantified by, for example, liquid chromatography with mass spectrometric detection (LC/MS). After quantification, pharmacokinetics parameters can be calculated using methods known in the art, such as a one compartment model with mono-exponential decay and linear regression analysis (see, e.g., Fantin et al., Antimicrob. Agents Chemotherap. 35: 1413. 1991).
A pharmacokinetic parameter that can be measured, and which aids in determining efficacy, after a single i.v. administration of an antimicrobial lipopeptide derivative of the instant disclosure is the systemic half-life of the compound. Briefly, test compounds were dissolved in a 5% mannitol solution (pH was then adjusted) to a concentration of 1 mg/mL (w/v). A single intravenous injection in the lateral caudal vein of Swiss CD1 mice (5 to 6 weeks old, female) or Sprague Dawley rats (male) was used to administer the lipopeptide derivative at a final dose of 10 mg/kg. At various time points (ranging from about 4 minutes to about 24 hours for mice, and 48 or 72 hours for rats) mice were sacrificed and blood was harvested. The concentration of lipopeptide derivative in ex vivo plasma was quantified using liquid chromatography (LC) with mass spectrometric detection (MS).

[13] = system: S. aureus Smith (SAU0017, ATCC 19636); assay: Intraperitoneal murine model of protection against infection (ED50, Table 21); type: in vivo, Staphylococcus aureus; conditions: Swiss CD1 mice infected i.p., compound i.v.
From the text: A variety of in vivo models may be used to assess the antimicrobial properties of lipopeptide derivative compounds of this disclosure. For example, antimicrobial compounds of the instant disclosure may be tested for efficacy by measuring a compound's ability to protect a mouse against a microbial infection, such as an infection or disease caused by or related to Gram-positive bacteria, including Staphylococcus aureus, Streptococcus pneumoniae, and Enterococcus faecalis. […] A certain period after infection, mice are then individually treated, for example intravenously (i.v.), with a lipopeptide derivative of this disclosure.
Antimicrobial lipopeptide derivatives of the instant invention were tested for antimicrobial activity against Gram-positive bacteria in an intraperitoneal (i.p.) murine model (i.e., bacteria were injected i.p. and lipopeptide compounds were administered intravenously (i.v.)). Mice were infected with Staphylococcus aureus, Streptococcus pneumoniae, or Enterococcus faecalis, which were prepared as follows: S. aureus Smith (SAU0017, ATCC 19636) were grown in culture overnight on trypticase soy broth, harvested and then resuspended in fresh media containing 5% mucin (Sigma Chemical Co.); S. pneumoniae (SPN 0032, ATCC 10813) were grown overnight on blood agar plates and re-suspended in 0.9% sterile saline; and E. faecalis EFS0040 (clinical isolate) were grown overnight in culture on blood heart infusion broth, washed and resuspended in 0.9% saline and mixed with equal volume of sterile fecal rat extract. Swiss CD1 mice were each infected i.p. with bacteria at the following doses: S. aureus at 10^6 CFU/mouse; S. pneumoniae at 10^2 CFU/mouse; or E. faecalis at 10^7.5 CFU/mouse. […] The ED50 for each compound was calculated using the method of Reed and Meunch (Am. J. Hyg. 27: 493, 1938).

CCCCCCCCCCCCNC(=O)NC(CC(=O)O)C(=O)NC1C(=O)N2CCCCC2C(=O)NC(C(C)C(=O)O)C(=O)NC(CC(=O)O)C(=O)NCC(=O)NC(CC(=O)O)C(=O)NCC(=O)NC(C(C)NC(=O)CN)C(=O)NC(C(C)C)C(=O)N2CCCC2C(=O)NC1C (stereo not drawn) [Compound 92, CH3—(CH2)11—NH—C(═O)-Amphomycin-9-Gly]
MIC [1]: 0.25 to 0.5 µg/mL
MIC, media condition A [2]: 1-2
MIC, media condition B [3]: 6-16
MIC, media condition C [3]: 2-4
MIC, media condition D [3]: 64
MIC, media condition E [4]: 0.25-0.5
MIC, media condition F [4]: 8
MIC, media condition G [5]: 4
MIC, media condition H [6]: 1-2
MIC, media condition I [7]: 0.5-1
MIC, media condition J [8]: 0.25
MIC, media condition K [9]: 0.125
MIC, media condition L [10]: 0.25
MIC, media condition M [11]: 0.25

CCCCCCCCCCCCNC(=O)NC(CC(=O)O)C(=O)NC1C(=O)N2CCCCC2C(=O)NC(C(C)C(=O)O)C(=O)NC(CC(=O)O)C(=O)NCC(=O)NC(CC(=O)O)C(=O)NCC(=O)NC(C(C)NC(=O)CCN)C(=O)NC(C(C)C)C(=O)N2CCCC2C(=O)NC1C (stereo not drawn) [Compound 97, CH3—(CH2)11—NH—C(═O)-Amphomycin-9-(β-Ala)]
MIC [1]: 0.25 µg/mL
MIC, media condition A [2]: 2
MIC, media condition B [3]: 64
MIC, media condition C [3]: 4
MIC, media condition D [3]: 64
MIC, media condition E [4]: 0.25
MIC, media condition F [4]: 16
MIC, media condition G [5]: 4
MIC, media condition H [6]: 1
MIC, media condition I [7]: 1
MIC, media condition J [8]: 0.125
MIC, media condition K [9]: 0.25
MIC, media condition L [10]: 0.125
MIC, media condition M [11]: 0.5

CCCCCCCCCCCCNC(=O)NC(CC(=O)O)C(=O)NC1C(=O)N2CCCCC2C(=O)NC(C(C)C(=O)O)C(=O)NC(CC(=O)O)C(=O)NCC(=O)NC(CC(=O)O)C(=O)NCC(=O)NC(C(C)NC(=O)CNC)C(=O)NC(C(C)C)C(=O)N2CCCC2C(=O)NC1C (stereo not drawn) [Compound 98, CH3—(CH2)11—NH—C(═O)-Amphomycin-9-Sar]
MIC [1]: 0.5 µg/mL
MIC, media condition A [2]: 2
MIC, media condition B [3]: 32
MIC, media condition C [3]: 4
MIC, media condition D [3]: >64
MIC, media condition E [4]: 0.5
MIC, media condition F [4]: 16
MIC, media condition G [5]: 4
MIC, media condition H [6]: 1
MIC, media condition I [7]: 1
MIC, media condition J [8]: 0.125
MIC, media condition K [9]: 0.25
MIC, media condition L [10]: 0.5
MIC, media condition M [11]: 0.5

CCCCCCCCCCCCC(=O)NC(CC(=O)O)C(=O)NC1C(=O)N2CCCCC2C(=O)NC(C(C)C(=O)O)C(=O)NC(CC(=O)O)C(=O)NCC(=O)NC(CC(=O)O)C(=O)NCC(=O)NC(C(C)NC(=O)CNC(=O)[C@@H](N)CCCCN)C(=O)NC(C(C)C)C(=O)N2CCCC2C(=O)NC1C (stereo partly drawn) [Compound 128, C13-Amphomycin-9-Gly-Lys]
half-life [12]: 11.9 min
ED50 in Mice, S. aureus (SAU0017) [13]: 6.2 mg/kg

CCCCCCCCCCCCCCC(=O)NC(CC(=O)O)C(=O)NC1C(=O)N2CCCCC2C(=O)NC(C(C)C(=O)O)C(=O)NC(CC(=O)O)C(=O)NCC(=O)NC(CC(=O)O)C(=O)NCC(=O)NC(C(C)NC(=O)[C@@H]2CCCN2)C(=O)NC(C(C)C)C(=O)N2CCCC2C(=O)NC1C (stereo partly drawn) [Compound 160, C15-Amphomycin-9-Pro]
MIC [1]: 4 µg/mL
MIC, media condition A [2]: 8
MIC, media condition B [3]: 16
MIC, media condition C [3]: 8
MIC, media condition D [3]: >64
MIC, media condition E [4]: 4
MIC, media condition F [4]: >64
MIC, media condition G [5]: 16
MIC, media condition H [6]: 4
MIC, media condition I [7]: 4
MIC, media condition J [8]: 0.5
MIC, media condition K [9]: 0.25
MIC, media condition L [10]: 2
MIC, media condition M [11]: 2

CCCCCCCCCCCCNC(=O)NC(CC(=O)O)C(=O)NC1C(=O)N2CCCCC2C(=O)NC(C(C)C(=O)O)C(=O)NC(CC(=O)O)C(=O)NCC(=O)NC(CC(=O)O)C(=O)NCC(=O)NC(C(C)N)C(=O)NC(C(C)C)C(=O)N2CCCC2C(=O)NC1C (stereo not drawn) [Compound 251, CH3—(CH2)11—NH—C(═O)-Amphomycin]
MIC [1]: 2 µg/mL
MIC, media condition A [2]: 4
MIC, media condition B [3]: 8
MIC, media condition C [3]: 4
MIC, media condition D [3]: 32
MIC, media condition E [4]: 2
MIC, media condition F [4]: 8
MIC, media condition G [5]: 4
MIC, media condition H [6]: 2
MIC, media condition I [7]: 2
MIC, media condition J [8]: 0.5
MIC, media condition K [9]: 1
MIC, media condition L [10]: 1
MIC, media condition M [11]: 2
